#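 Where inhibition never reached the appropriate level, the endpoint shown equals the highest concentration tested. Otherwise, values were interpolated linearly from a five-concentration, 48-hour dose response in 96-well plates. The concentration for 50% growth inhibition is given as GI50.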 Active and inactive are the calls of the source. No stated cut-off is given here; in the data, active = GI50 up to about 1.1 µM and inactive = higher.
# Key:
# Assay in all cases: NCI tumour cell line growth inhibition, 48 h
# SK-MEL-2 = system: SK-MEL-2
# MOLT-4 = system: MOLT-4
# HCC 2998 = system: HCC 2998
# KM12 = system: KM12
# MDA-MB-231 = system: MDA-MB-231
# MDA-MB-435 = system: MDA-MB-435
# DU-145 = system: DU-145
# UACC-62 = system: UACC-62
# TK-10 = system: TK-10
# ACHN = system: ACHN
# M14 = system: M14
# NCI-H460 = system: NCI-H460
# K562 = system: K562
# SNB-19 = system: SNB-19
# SK-MEL-28 = system: SK-MEL-28
# OVCAR-4 = system: OVCAR-4
# NCI-H23 = system: NCI-H23
# HT-29 = system: HT-29
# HCT-116 = system: HCT-116
# OVCAR-3 = system: OVCAR-3
# BT-549 = system: BT-549
# SNB-75 = system: SNB-75
# OVCAR-5 = system: OVCAR-5
# SW-620 = system: SW-620
# SF-539 = system: SF-539
# RPMI-8226 = system: RPMI-8226
# SK-MEL-5 = system: SK-MEL-5
# COLO 205 = system: COLO 205
# NCI-H522 = system: NCI-H522
# U-251 = system: U-251
# MCF7 = system: MCF7
# SF-295 = system: SF-295
# MDA-N = system: MDA-N
# UO-31 = system: UO-31
# SF-268 = system: SF-268
# EKVX = system: EKVX
# A549 = system: A549
# CAKI-1 = system: CAKI-1
# RXF 393 = system: RXF 393
# SN12C = system: SN12C
# T47D = system: T47D
# A498 = system: A498
# UACC-257 = system: UACC-257
# OVCAR-8 = system: OVCAR-8
# NCI/ADR-RES = system: NCI/ADR-RES
# SK-OV-3 = system: SK-OV-3
# HCT-15 = system: HCT-15
# HOP-62 = system: HOP-62
# Hs-578T = system: Hs-578T
# 786-0 = system: 786-0
# PC-3 = system: PC-3
# IGROV-1 = system: IGROV-1
# HL-60 = system: HL-60
# LOX IMVI = system: LOX IMVI
# CCRF-CEM = system: CCRF-CEM
# NCI-H226 = system: NCI-H226
# Malme-3M = system: Malme-3M
# HOP-92 = system: HOP-92
smiles,measurement,setting,value
CCOC(=O)C1=COC(C)(c2ccccc2)CC1=O (centres undefined),GI50,SK-MEL-2,> 100 µM (inactive)
same,GI50,MOLT-4,49.7 µM (inactive)
same,GI50,HCC 2998,> 100 µM (inactive)
same,GI50,KM12,> 100 µM (inactive)
same,GI50,MDA-MB-231,> 100 µM (inactive)
same,GI50,MDA-MB-435,> 100 µM (inactive)
same,GI50,DU-145,> 100 µM (inactive)
same,GI50,UACC-62,> 100 µM (inactive)
same,GI50,TK-10,> 100 µM (inactive)
same,GI50,ACHN,> 100 µM (inactive)
same,GI50,M14,> 100 µM (inactive)
same,GI50,NCI-H460,> 100 µM (inactive)
same,GI50,K562,> 100 µM (inactive)
same,GI50,SNB-19,> 100 µM (inactive)
same,GI50,SK-MEL-28,> 100 µM (inactive)
same,GI50,OVCAR-4,> 100 µM (inactive)
same,GI50,NCI-H23,> 100 µM (inactive)
same,GI50,HT-29,> 100 µM (inactive)
same,GI50,HCT-116,> 100 µM (inactive)
same,GI50,OVCAR-3,> 100 µM (inactive)
same,GI50,BT-549,> 100 µM (inactive)
same,GI50,SNB-75,> 100 µM (inactive)
same,GI50,OVCAR-5,> 100 µM (inactive)
same,GI50,SW-620,> 100 µM (inactive)
same,GI50,SF-539,> 100 µM (inactive)
same,GI50,RPMI-8226,> 100 µM (inactive)
same,GI50,SK-MEL-5,> 100 µM (inactive)
same,GI50,COLO 205,> 100 µM (inactive)
same,GI50,NCI-H522,> 100 µM (inactive)
same,GI50,U-251,> 100 µM (inactive)
same,GI50,MCF7,> 100 µM (inactive)
same,GI50,SF-295,> 100 µM (inactive)
same,GI50,MDA-N,> 100 µM (inactive)
same,GI50,UO-31,> 100 µM (inactive)
same,GI50,SF-268,> 100 µM (inactive)
same,GI50,EKVX,> 100 µM (inactive)
same,GI50,A549,> 100 µM (inactive)
same,GI50,CAKI-1,> 100 µM (inactive)
same,GI50,RXF 393,63.1 µM (inactive)
same,GI50,SN12C,> 100 µM (inactive)
same,GI50,T47D,> 100 µM (inactive)
same,GI50,A498,> 100 µM (inactive)
same,GI50,UACC-257,> 100 µM (inactive)
same,GI50,OVCAR-8,> 100 µM (inactive)
same,GI50,NCI/ADR-RES,> 100 µM (inactive)
same,GI50,SK-OV-3,> 100 µM (inactive)
same,GI50,HCT-15,> 100 µM
same,GI50,HOP-62,> 100 µM (inactive)
same,GI50,Hs-578T,88.9 µM (inactive)
same,GI50,786-0,> 100 µM (inactive)
same,GI50,PC-3,> 100 µM (inactive)
CCOC(=O)c1c(-c2ccc(Br)cc2)ccn1C,GI50,IGROV-1,> 10 µM (inactive)
same,GI50,HL-60,> 10 µM (inactive)
same,GI50,SK-MEL-2,> 10 µM (inactive)
same,GI50,MOLT-4,> 10 µM (inactive)
same,GI50,HCC 2998,> 10 µM (inactive)
same,GI50,KM12,> 10 µM (inactive)
same,GI50,MDA-MB-231,> 10 µM (inactive)
same,GI50,MDA-MB-435,> 10 µM (inactive)
same,GI50,DU-145,> 10 µM (inactive)
same,GI50,UACC-62,> 10 µM (inactive)
same,GI50,TK-10,> 10 µM (inactive)
same,GI50,ACHN,> 10 µM (inactive)
same,GI50,M14,> 10 µM (inactive)
same,GI50,NCI-H460,> 10 µM (inactive)
same,GI50,K562,> 10 µM (inactive)
same,GI50,SNB-19,> 10 µM (inactive)
same,GI50,SK-MEL-28,> 10 µM (inactive)
same,GI50,OVCAR-4,> 10 µM (inactive)
same,GI50,NCI-H23,> 10 µM (inactive)
same,GI50,HT-29,> 10 µM (inactive)
same,GI50,HCT-116,> 10 µM (inactive)
same,GI50,OVCAR-3,> 10 µM (inactive)
same,GI50,BT-549,> 10 µM (inactive)
same,GI50,SNB-75,> 10 µM (inactive)
same,GI50,OVCAR-5,> 10 µM (inactive)
same,GI50,SW-620,> 10 µM (inactive)
same,GI50,SF-539,> 10 µM (inactive)
same,GI50,RPMI-8226,> 10 µM (inactive)
same,GI50,LOX IMVI,> 10 µM (inactive)
same,GI50,SK-MEL-5,> 10 µM (inactive)
same,GI50,CCRF-CEM,> 10 µM (inactive)
same,GI50,COLO 205,> 10 µM (inactive)
same,GI50,NCI-H522,> 10 µM (inactive)
same,GI50,U-251,> 10 µM (inactive)
same,GI50,MCF7,> 10 µM (inactive)
same,GI50,SF-295,> 10 µM (inactive)
same,GI50,NCI-H226,> 10 µM (inactive)
same,GI50,MDA-N,> 10 µM (inactive)
same,GI50,SF-268,> 10 µM (inactive)
same,GI50,EKVX,> 10 µM (inactive)
same,GI50,A549,> 10 µM (inactive)
same,GI50,CAKI-1,> 10 µM (inactive)
same,GI50,RXF 393,4.65 µM (inactive)
same,GI50,SN12C,> 10 µM (inactive)
same,GI50,T47D,> 10 µM (inactive)
same,GI50,A498,> 10 µM (inactive)
same,GI50,UACC-257,> 10 µM (inactive)
same,GI50,OVCAR-8,> 10 µM (inactive)
same,GI50,NCI/ADR-RES,> 10 µM (inactive)
same,GI50,SK-OV-3,> 10 µM (inactive)
same,GI50,HCT-15,> 10 µM
same,GI50,HOP-62,> 10 µM (inactive)
same,GI50,Hs-578T,> 10 µM (inactive)
same,GI50,786-0,> 10 µM (inactive)
same,GI50,PC-3,> 10 µM (inactive)
same,GI50,Malme-3M,> 10 µM (inactive)
CCCCCCCCCCCC(=O)OCC(O)CO (centres undefined) [GLYCEROL MONOLAURATE],GI50,HL-60,12.9 µM (inactive)
same,GI50,SK-MEL-2,> 100 µM (inactive)
same,GI50,MOLT-4,37.1 µM (inactive)
same,GI50,KM12,20.4 µM (inactive)
same,GI50,MDA-MB-231,> 100 µM (inactive)
same,GI50,MDA-MB-435,61.4 µM (inactive)
same,GI50,DU-145,> 100 µM (inactive)
same,GI50,UACC-62,> 100 µM (inactive)
same,GI50,TK-10,> 100 µM (inactive)
same,GI50,ACHN,> 100 µM (inactive)
same,GI50,M14,69.7 µM (inactive)
same,GI50,NCI-H460,80.5 µM (inactive)
same,GI50,SNB-19,> 100 µM (inactive)
same,GI50,SK-MEL-28,> 100 µM (inactive)
same,GI50,OVCAR-4,> 100 µM (inactive)
same,GI50,NCI-H23,67.3 µM (inactive)
same,GI50,HT-29,31.2 µM (inactive)
same,GI50,HCT-116,> 100 µM (inactive)
same,GI50,OVCAR-3,76.9 µM (inactive)
same,GI50,BT-549,36.4 µM (inactive)
same,GI50,SNB-75,> 100 µM (inactive)
same,GI50,OVCAR-5,> 100 µM (inactive)
same,GI50,SW-620,> 100 µM (inactive)
same,GI50,SF-539,> 100 µM (inactive)
same,GI50,LOX IMVI,48.1 µM (inactive)
same,GI50,SK-MEL-5,59 µM (inactive)
same,GI50,CCRF-CEM,42.7 µM (inactive)
same,GI50,COLO 205,> 100 µM (inactive)
same,GI50,NCI-H522,> 100 µM (inactive)
same,GI50,U-251,71.3 µM (inactive)
same,GI50,HOP-92,> 100 µM (inactive)
same,GI50,MCF7,> 100 µM (inactive)
same,GI50,SF-295,> 100 µM (inactive)
same,GI50,NCI-H226,> 100 µM (inactive)
same,GI50,MDA-N,88.9 µM (inactive)
same,GI50,UO-31,71.9 µM (inactive)
same,GI50,SF-268,> 100 µM (inactive)
same,GI50,EKVX,> 100 µM (inactive)
same,GI50,A549,54.1 µM (inactive)
same,GI50,CAKI-1,> 100 µM (inactive)
same,GI50,SN12C,> 100 µM (inactive)
same,GI50,T47D,69.3 µM (inactive)
same,GI50,A498,> 100 µM (inactive)
same,GI50,UACC-257,> 100 µM (inactive)
same,GI50,OVCAR-8,> 100 µM (inactive)
same,GI50,NCI/ADR-RES,> 100 µM (inactive)
same,GI50,SK-OV-3,> 100 µM (inactive)
same,GI50,HCT-15,> 100 µM
same,GI50,HOP-62,> 100 µM (inactive)
same,GI50,Hs-578T,> 100 µM (inactive)
same,GI50,786-0,> 100 µM (inactive)
same,GI50,PC-3,> 100 µM (inactive)
